Measurements taken from PubChem BioAssay AID1845208 (Molecular Pharmacology Branch, DTP, NCI, 2023).

Tested on: NCI-H196 SCLC complex tumor spheroid viability
Test: Anticancer human tumor NCI-H196 cell line growth inhibition;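 also: spheroids exposed to compounds for 7 days before readout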;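 as to viability, T/C: 100% = DMSO vehicle control wells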
Conditions: for IC50: curve of first compound; for viability, T/C: stronger effect = lower value
How it was run: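 Complex tumor spheroids combined malignant cells with endothelial cells and mesenchymal stem cells. DNA-damaging drugs and DNA repair inhibitors were tested alone and in combination, at half-log dilutions down from clinical Cmax (top 10 microM if Cmax unknown), 0.25% DMSO final.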

[1] = second compound 1 µM, first compound 0.0316 µM
[2] = second compound 1 µM, first compound 0.1 µM
[3] = second compound 1 µM, first compound 0.316 µM
[4] = second compound 1 µM, first compound 1 µM
[5] = second compound 1 µM, first compound 3.16 µM
[6] = second compound 1 µM, first compound 10 µM
[7] = second compound 3.16 µM, first compound 0.0316 µM
[8] = second compound 3.16 µM, first compound 0.1 µM
[9] = second compound 3.16 µM, first compound 0.316 µM
[10] = second compound 3.16 µM, first compound 1 µM
[11] = second compound 3.16 µM, first compound 3.16 µM
[12] = second compound 3.16 µM, first compound 10 µM
[13] = second compound 10 µM, first compound 0.0316 µM
[14] = second compound 10 µM, first compound 0.1 µM
[15] = second compound 10 µM, first compound 0.316 µM
[16] = second compound 10 µM, first compound 1 µM
[17] = second compound 10 µM, first compound 3.16 µM
[18] = second compound 10 µM, first compound 10 µM
[19] = second compound 31.6 µM, first compound 0.0316 µM
[20] = second compound 31.6 µM, first compound 0.1 µM
[21] = second compound 31.6 µM, first compound 0.316 µM
[22] = second compound 31.6 µM, first compound 1 µM
[23] = second compound 31.6 µM, first compound 3.16 µM
[24] = second compound 31.6 µM, first compound 10 µM
[25] = second compound 100 µM, first compound 0.0316 µM
[26] = second compound 100 µM, first compound 0.1 µM
[27] = second compound 100 µM, first compound 0.316 µM
[28] = second compound 100 µM, first compound 1 µM
[29] = second compound 100 µM, first compound 3.16 µM
[30] = second compound 100 µM, first compound 10 µM

SMILES | IC50 (second compound 1 µM) [µM] | IC50 (second compound 3.16 µM) [µM] | IC50 (second compound 10 µM) [µM] | IC50 (second compound 31.6 µM) [µM] | IC50 (second compound 100 µM) [µM] | viability, T/C [1] [%] | viability, T/C [2] [%] | viability, T/C [3] [%] | viability, T/C [4] [%] | viability, T/C [5] [%] | viability, T/C [6] [%] | viability, T/C [7] [%] | viability, T/C [8] [%] | viability, T/C [9] [%] | viability, T/C [10] [%] | viability, T/C [11] [%] | viability, T/C [12] [%] | viability, T/C [13] [%] | viability, T/C [14] [%] | viability, T/C [15] [%] | also measured
CC1COCCN1c1cc(-c2ccnn2C)c2ccnc(-c3ccn[nH]3)c2n1 (stereo not given) + Cn1nnc2c(C(N)=O)ncn2c1=O | 2.82 | 2.15 | 7.34 | 4.44 | 3.49 | 84.8 | 77.5 | 61.2 | 59.5 | 48.1 | 44.4 | 92.6 | 77.7 | 62.2 | 56.7 | 44.1 | 47.3 | 98.3 | 85.4 | 75.7 | viability, T/C [16]: 58.2%; viability, T/C [17]: 54%; viability, T/C [18]: 48.8%; viability, T/C [19]: 95.2%; viability, T/C [20]: 85.5%; viability, T/C [21]: 71.4%; viability, T/C [22]: 59.6%; viability, T/C [23]: 51.6%; viability, T/C [24]: 46.6%; viability, T/C [25]: 90.3%; viability, T/C [26]: 76.8%; viability, T/C [27]: 69.9%; viability, T/C [28]: 57.9%; viability, T/C [29]: 49.7%; viability, T/C [30]: 44.8%
COc1cc(C)[nH]c(=O)c1CN1CCc2c(Cl)cc(C(OC)C3COC3)c(Cl)c2C1=O (stereo not given) + Cn1nnc2c(C(N)=O)ncn2c1=O | > 10 | > 10 | > 10 | > 10 | > 10 | 91.4 | 103 | 89.9 | 86.8 | 94 | 92 | 95.2 | 98.8 | 99.2 | 105 | 90.9 | 97.3 | 106 | 104 | 99.7 | viability, T/C [16]: 103%; viability, T/C [17]: 98.2%; viability, T/C [18]: 102%; viability, T/C [19]: 104%; viability, T/C [20]: 107%; viability, T/C [21]: 101%; viability, T/C [22]: 106%; viability, T/C [23]: 99%; viability, T/C [24]: 105%; viability, T/C [25]: 102%; viability, T/C [26]: 98.9%; viability, T/C [27]: 99.3%; viability, T/C [28]: 87.1%; viability, T/C [29]: 96.4%; viability, T/C [30]: 94.7%
COc1ccc([C@@H](O)c2cc(-c3ncnc4cc(N5CCOCC5)ccc34)c(F)cc2Cl)nn1 + Cn1nnc2c(C(N)=O)ncn2c1=O | > 10 | > 10 | > 10 | > 10 | > 10 | 93.8 | 97.1 | 87.3 | 73.5 | 65.6 | 52 | 98.8 | 92.5 | 96.7 | 82.5 | 68.9 | 52.9 | 108 | 97.3 | 96.5 | viability, T/C [16]: 80.1%; viability, T/C [17]: 63.7%; viability, T/C [18]: 55.5%; viability, T/C [19]: 109%; viability, T/C [20]: 101%; viability, T/C [21]: 92.5%; viability, T/C [22]: 80.1%; viability, T/C [23]: 71.4%; viability, T/C [24]: 59.3%; viability, T/C [25]: 105%; viability, T/C [26]: 99.9%; viability, T/C [27]: 95.7%; viability, T/C [28]: 91.2%; viability, T/C [29]: 70.3%; viability, T/C [30]: 57%
Cc1cc(C)c(CNC(=O)c2cc(-c3ccc(CN4CCOCC4)cc3)cc3c2cnn3C2CCCC2)c(=O)[nH]1 + Cn1nnc2c(C(N)=O)ncn2c1=O | > 10 | > 10 | > 10 | > 10 | > 10 | 91 | 102 | 92.1 | 92.8 | 90.6 | 105 | 93.6 | 94.5 | 101 | 104 | 100 | 101 | 99.3 | 97.8 | 98.8 | viability, T/C [16]: 93.9%; viability, T/C [17]: 94.9%; viability, T/C [18]: 96%; viability, T/C [19]: 98.5%; viability, T/C [20]: 102%; viability, T/C [21]: 108%; viability, T/C [22]: 110%; viability, T/C [23]: 104%; viability, T/C [24]: 94.7%; viability, T/C [25]: 94.5%; viability, T/C [26]: 98.5%; viability, T/C [27]: 98.9%; viability, T/C [28]: 99%; viability, T/C [29]: 99.8%; viability, T/C [30]: 96%
[2H]c1nc(C)nc([2H])c1-c1cc(NC[C@@H](C)c2cccc3c(C(=O)NC)ccnc23)ncn1 + Cn1nnc2c(C(N)=O)ncn2c1=O | > 10 | > 10 | > 10 | > 10 | > 10 | 94.1 | 96.6 | 97.9 | 99.5 | 105 | 91.2 | 100 | 104 | 98.5 | 97.5 | 90.8 | 96.9 | 110 | 99.8 | 97.7 | viability, T/C [16]: 101%; viability, T/C [17]: 101%; viability, T/C [18]: 107%; viability, T/C [19]: 109%; viability, T/C [20]: 104%; viability, T/C [21]: 108%; viability, T/C [22]: 112%; viability, T/C [23]: 99.8%; viability, T/C [24]: 118%; viability, T/C [25]: 101%; viability, T/C [26]: 102%; viability, T/C [27]: 99.3%; viability, T/C [28]: 102%; viability, T/C [29]: 103%; viability, T/C [30]: 104%
